Experimental data as given in patent publication US20060128695A1, “Cyclic nucleotide phosphodiesterase inhibitors, preparation and uses” (NEURO3D, priority 2002, published 2006).
Like-named read-outs stand apart in the source and are kept apart here.

Experiments:
Type in all cases: biochemical, bovine
[1] = target: T1, PDE2 (Bos taurus, UniProt P14099); assay: Inhibition of PDE2, radioenzymatic phosphodiesterase assay; conditions: for inhibition at 10 µM: read-out: PDE2 percentage inhibition at 10 μM
T1 construct: PDE2 was prepared from bovine endothelial cells by the same methods; endogenous in cells; host or cells: bovine endothelial cells
T1 sequence (P14099 1-921): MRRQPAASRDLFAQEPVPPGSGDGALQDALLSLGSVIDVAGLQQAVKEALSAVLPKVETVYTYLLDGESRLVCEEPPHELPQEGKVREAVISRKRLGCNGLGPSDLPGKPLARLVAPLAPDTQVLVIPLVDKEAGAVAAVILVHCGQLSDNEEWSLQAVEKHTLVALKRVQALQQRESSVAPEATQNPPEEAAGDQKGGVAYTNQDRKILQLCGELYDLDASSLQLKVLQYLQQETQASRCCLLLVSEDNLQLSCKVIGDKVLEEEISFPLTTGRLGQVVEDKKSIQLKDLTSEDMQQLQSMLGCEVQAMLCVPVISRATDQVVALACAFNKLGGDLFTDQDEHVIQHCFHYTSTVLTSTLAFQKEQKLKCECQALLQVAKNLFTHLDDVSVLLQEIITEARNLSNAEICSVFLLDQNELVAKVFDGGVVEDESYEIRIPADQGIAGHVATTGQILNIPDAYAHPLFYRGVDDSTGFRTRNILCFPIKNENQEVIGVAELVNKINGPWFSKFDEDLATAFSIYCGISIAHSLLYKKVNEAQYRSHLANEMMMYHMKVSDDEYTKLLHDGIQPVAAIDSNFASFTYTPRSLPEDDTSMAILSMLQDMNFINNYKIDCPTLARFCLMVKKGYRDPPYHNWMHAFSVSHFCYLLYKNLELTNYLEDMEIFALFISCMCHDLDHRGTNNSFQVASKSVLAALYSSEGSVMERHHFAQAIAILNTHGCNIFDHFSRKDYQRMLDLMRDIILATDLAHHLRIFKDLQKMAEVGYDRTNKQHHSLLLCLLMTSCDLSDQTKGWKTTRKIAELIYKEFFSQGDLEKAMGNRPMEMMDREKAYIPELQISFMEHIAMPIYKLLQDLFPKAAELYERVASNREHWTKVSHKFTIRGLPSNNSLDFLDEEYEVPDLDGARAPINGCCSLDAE

[2] = tested on: PDE4; assay: Selectivity: inhibition of PDE4, radioenzymatic phosphodiesterase assay; conditions: vascular smooth muscle; for PDE4 percentage inhibition at 10 μM: 10 μM test compound; for IC50: cells without % sign
Protocol: (§1) A 3 g segment of bovine aortic media cut into pieces with scissors was homogenized with an ultra-turrax then a potter glass/glass homogenizer in 7 volumes by weight of buffer A containing a protease inhibitor cocktail (20 mM Tris-HCl, 0.25 M saccharose, 2 mM magnesium acetate, 1 mM dithiothreitol, 5 mM EGTA, 2000 U/ml aprotinin, 10 mg/l leupeptin and 10 mg/l soya trypsic inhibitor). The homogenizate was centrifuged at 105,000 g for 1 hour. The supernatant was loaded on a DEAE-Sephacel column (15 x 1.6 cm) pre-equilibrated with buffer B (buffer A without the saccharose, EGTA and protease inhibitors). The column was washed until there was no detectable absorption at 280 nm, then eluted with a linear gradient of NaCl (0-0.5 M) in buffer B. 3-ml fractions were collected and enzyme activity was determined under the conditions described hereinbelow to localize the different enzymes PDE1, PDE3, PDE4 and PDE5 which were aliquoted and frozen at −80° C. (Lugnier et al., Biochem. Phamacol., 1986, 35: 1746-1751). PDE2 was prepared from bovine endothelial cells by the same methods (Lugnier and Schini, Biochem. Pharmacol., 1990, 39: 75-84).
(§2) Cyclic nucleotide phosphodiesterase activity was determined by a radioenzymatic method using tritium-labelled cyclic GMP or AMP (1 μM) as substrate (Lugnier et al., 1986). ^3H-labelled adenosine or guanosine monophosphate formed by hydrolysis of the radiolabelled cyclic nucleotide was then converted to ^3H-labelled adenosine or guanosine in a second reaction with […] in excess. The nucleoside formed was separated from the nucleotides by anion exchange chromatography. Nucleoside radioactivity was determined by liquid scintillation counting. Enzymatic incubations were carried out under conditions allowing no more than 15% hydrolysis of the substrate; each point was performed in duplicate.
(§3) The activity of the compounds was evaluated on other phosphodiesterase isoforms, particularly basal state or calmodulin-activated PDEl from vascular smooth muscle, PDE3, PDE4 and PDE5 from vascular smooth muscle.
(§4) The results obtained are presented in Tables 1 and 2 hereinbelow and are expressed as the percentage inhibition of enzymatic activity produced by […] of the test compound.

[3] = target: T2, PDE5 (Bos taurus, UniProt Q28156); assay: Selectivity: inhibition of PDE5, radioenzymatic phosphodiesterase assay; conditions: 10 μM test compound; vascular smooth muscle; read-out: PDE5 percentage inhibition at 10 μM
T2 construct: localize the different enzymes PDE1, PDE3, PDE4 and PDE5 which were aliquoted and frozen; from tissue; host or cells: bovine aortic media (vascular smooth muscle)
Protocol: as §1, §2, §3, §4

[4] = 10 μM test compound, PDE2 from bovine endothelial cells

## COc1cc2c(cc1OC)N(C)C(=O)CN=C2c1cccc(-c2ccc(C#N)cc2)c1 [Compound 6m, 3′-(7,8-dimethoxy-1-methyl-2-oxo-2,3-dihydro-1H-1,4-benzodiazepin-5-yl)-1,1′-biphenyl-4-carbonitrile]
[1]
  inhibition at 10 µM: 82.3%
[2]
  PDE4 percentage inhibition at 10 μM: 37.3%

## COc1cc2c(cc1OC)N(C)C(=O)CN=C2c1cccc(-c2ccc(Cl)cc2)c1 [Compound 6j, 5-(4′-chloro-1,1′-biphenyl-3-yl)-7,8-dimethoxy-1-methyl-1,3-dihydro-2H-1,4-benzodiazepin-2-one]
[1]
  IC50: 0.71 µM
[2]
  IC50: 2.8 µM

## COc1cc2c(c(Br)c1OC)C(c1cccc(C(N)=O)c1)=NCC(=O)N2C [Compound 5b, 3-(6-bromo-7,8-dimethoxy-1-methyl-2-oxo-2,3-dihydro-1H-1,4-benzodiazepin-5-yl)benzamide]
[1]
  IC50: 2.1 µM
[3]
  inhibition at 10 µM: 21.6%

## COc1cc2c(cc1OC)N(C)C(=O)CN=C2c1cccc(-c2ccc(C(N)=O)cc2)c1 [Compound 6n, 3′-(7,8-dimethoxy-1-methyl-2-oxo-2,3-dihydro-1H-1,4-benzodiazepin-5-yl)-1,1′-biphenyl-4-carboxamide]
[1]
  inhibition at 10 µM: 84.6%
[2]
  PDE4 percentage inhibition at 10 μM: 58.7%

## CCN1C(=O)C(Cc2ccc(Cl)c(Cl)c2)N=C(c2ccccc2)c2cc(OC)c(OC)cc21 (centres unmarked) [Compound 7a, 3-(3,4-dichlorobenzyl)-1-ethyl-7,8-dimethoxy-5-phenyl-1,3-dihydro-2H-1,4-benzodiazepin-2-one]
[1]
  IC50: 3.13 µM
[2]
  IC50: 6.52 µM

## COc1cc2c(cc1OC)N(C)C(=O)CN=C2c1cccc(C#CCCCC#N)c1 [Compound 6d, 6-[3-(7,8-dimethoxy-1-methyl-2-oxo-2,3-dihydro-1H-1,4-benzodiazepin-5-yl)phenyl]hex-5-ynenitrile]
[1]
  IC50: 2.4 µM
[2]
  PDE4 percentage inhibition at 10 μM: 55.7%

## Methyl (2E)-3-[5-(cyanophenyl)-7,8-dimethoxy-1-methyl-2-oxo-2,3-dihydro-1H-1,4-benzodiazepin-9-yl)phenyl]acrylate [Compound 25d]
[1]; [4]
  PDE2 percentage inhibition at 10 μM: 2.4%

## COc1cc2c(cc1OC)N(C)C(=O)CN=C2c1cccc(N)c1 [Compound 17i, 5-(3-aminophenyl)-7,8-dimethoxy-1-methyl-1,3-dihydro-2H-1,4-benzodiazepin-2-one]
[1]
  inhibition at 10 µM: 40%

## CCN1C(=O)CN=C(c2cccc(C(F)(F)F)c2)c2cc(OC)c(OC)cc21 [Compound 4q, 7,8-dimethoxy-1-ethyl-5-[3-(trifluoromethyl)phenyl]-1,3-dihydro-2H-1,4-benzodiazepin-2-one]
[1]
  inhibition at 10 µM: 32%

## COc1cc2c(cc1OC)N(C)C(=O)CN=C2c1cccc(-c2nc(-c3ccccc3)cs2)c1 [Compound 9b, 7,8-dimethoxy-1-methyl-5-[3-(4-phenyl-1,3-thiazol-2-yl)phenyl]-1,3-dihydro-2H-1,4-benzodiazepin-2-one]
[1]
  inhibition at 10 µM: 91.4%

## COc1cc2c(cc1O)C(c1cccc(C#N)c1)=NCC(=O)N2 [Compound 22b, 3-(7-hydroxy-8-methoxy-2-oxo-2,3-dihydro-1H-1,4-benzodiazepin-5-yl)benzonitrile]
[1]
  inhibition at 10 µM: 3.8%

## COc1cc2c(cc1OC)N(C)C(=O)CN=C2c1cccc(NC(C)=O)c1 [Compound 17n, N-[3-(7,8-dimethoxy-1-methyl-2-oxo-2,3-dihydro-1H-1,4-benzodiazepin-5-yl)phenyl]acetamide]
[1]; [4]
  inhibition at 10 µM: 38%

## COc1cc2c(cc1OC)N(C)C(=O)CN=C2c1cccc(-c2cccc(C#N)c2)c1 [Compound 6l, 3′-(7,8-dimethoxy-1-methyl-2-oxo-2,3-dihydro-1H-1,4-benzodiazepin-5-yl)-1,1′-biphenyl-3-carbonitrile]
[1]
  inhibition at 10 µM: 77.5%

## COc1cc2c(cc1OC)N(C)C(=O)CN=C2c1cccc(C(=O)O)c1 [Compound 35a, 3-(7,8-dimethoxy-1-methyl-2-oxo-2,3-dihydro-1H-1,4-benzodiazepin-5-yl)benzoic acid]
[1]; [4]
  inhibition at 10 µM: 26%

## COc1cc2c(cc1OC)N(C)C(=O)CN=C2c1cccc(CNC(C)=O)c1 [Compound 8b, N-[3-(7,8-dimethoxy-1-methyl-2-oxo-2,3-dihydro-1H-1,4-benzodiazepin-5-yl)benzyl]acetamide]
[1]; [4]
  inhibition at 10 µM: 27.2%

## COc1cc2c(cc1OC)N(Cc1ccc(Cl)c(Cl)c1)C(=O)CN=C2c1cccc(C#N)c1 [Compound 4d, 3-[1-(3,4-chlorobenzyl)-7,8-dimethoxy-2-oxo-2,3-dihydro-1H-1,4-benzodiazepin-5-yl]-benzonitrile]
[1]; [4]
  PDE2 percentage inhibition at 10 μM: 47.6%

## COc1cc2c(cc1OC)N(C)C(=O)C(Cc1ccc(Cl)c(Cl)c1)N=C2c1cccc(C#N)c1 (centres unmarked) [Compound 7b, 3-[3-(3,4-dichlorobenzyl)-7,8-dimethoxy-1-methyl-2-oxo-2,3-dihydro-1H-1,4-benzodiazepin-5-yl]benzonitrile]
[1]
  IC50: 5.5 µM

## COc1cc2c(cc1OC)N(C)C(=O)CN=C2c1cccc(C=O)c1 [Compound 17l, 5-(3-formylphenyl)-7,8-dimethoxy-1-methyl-1,3-dihydro-1,4-benzodiazepin-2-one]
[1]
  IC50: 5 µM

## COc1cc2c(cc1OC)N(Cc1ccc(Cl)cc1)C(=O)CN=C2c1cccc(C#N)c1 [Compound 4c, 3-[1-(4-chlorobenzyl)-7,8-dimethoxy-2-oxo-2,3-dihydro-1H-1,4-benzodiazepin-5-yl]-benzonitrile]
[1]
  inhibition at 10 µM: 35.3%

## COc1ccc(CN2C(=O)CN=C(c3cccc(C#N)c3)c3cc(OC)c(OC)cc32)cc1 [Compound 4e, 3-[7,8-dimethoxy-l-(4-methoxybenzyl)-2-oxo-2,3-dihydro-1H-1,4-benzodiazepin-5-yl]-benzonitrile]
[1]; [4]
  PDE2 percentage inhibition at 10 μM: 13.9%

## COc1cc2c(cc1OC)N(C)C(=O)CN=C2c1cccc(CN)c1 [Compound 8a, 5-[3-(aminomethyl)phenyl]-7,8-dimethoxy-1-methyl-1,3-dihydro-2H-1,4-benzodiazepin-2-one]
[1]
  IC50: 9 µM

## COc1cc2c(cc1OC)N(C)C(=O)CN=C2c1cccc(C(=O)NC(C)C)c1 [Compound 36a, 3-(7,8-dimethoxy-1-methyl-2-oxo-2,3-dihydro-1H-1,4-benzodiazepin-5-yl)N-isopropylbenzamide]
[1]; [4]
  inhibition at 10 µM: 75.9%

## COc1cc2c(cc1OC)N(C)C(=O)CN=C2c1cccc(C#CCN2CCCCC2)c1 [Compound 6c, 7,8-dimethoxy-1-methyl-5-[3-(3-piperidin-1-ylprop-1-ynyl)phenyl]-1,3-dihydro-2H-1,4-benzodiazepin-2-one]
[1]
  IC50: 4.3 µM
